Earlier results on 1 compound are cited in patent publication US5389382A, “Hydrosols of pharmacologically active agents and their pharmaceutical compositions comprising them” (Sandoz Ltd., priority 1986, dated 1995).

For this data set the following is noted: at room temperature.

SMILES strings stand for the structures.

As for `Cc1ccc2c(-c3ccccc3)nc(=O)n(C(C)C)c2c1` [Proquazone, 1-isopropyl-7-methyl-4-phenyl-2(1H)-quinazolone], the water solubility result is “below 0.1 g/100 ml”.
